According to patent publication US20240174638A1, “HETEROARYL DERIVATIVES AS APELIN RECEPTOR AGONISTS” (RESEARCH TRIANGLE INSTITUTE, priority 2021, published 2024):

Tests used:
Mouse plasma protein = settings: 6 h, 1 μM
in vitro = settings: mouse, pH 7.4
[1] = test system: Salmonella typhimurium (TA98, TA100, TA1535 and TA1537)
Human plasma protein = settings: 6 h, 1 μM
[2] = test system: BLEO-induced lung fibrosis in male C57BL/6 mice; test: Chronic (21-day) bleomycin-induced lung fibrosis model, prophylactic (Px) and therapeutic (Tx) arms; assay type: in vivo, mouse; settings: for 21-day survival rate: BLEO-instilled mice
Rat plasma protein = settings: 6 h, 1 μM
[3] = relative to Vehicle-treated BLEO-instilled controls

O=C(O)C[C@H](CCN1CCCC(F)(F)C1)NC(=O)c1cc(-c2ccccc2C(F)(F)F)n(-c2nccs2)n1 [Example 22, (3S)-5-(3,3-difluoropiperidin-1-yl)-3-{[1-(1,3-thiazol-2-yl)-5-[2-(trifluoromethyl)phenyl]-1H-pyrazol-3-yl]formamido}pentanoic acid]
% Protein Bound Rep 1 (Mouse plasma protein): 92.07%
% Protein Bound Rep 2 (Mouse plasma protein): 90.96%
% Protein Bound Rep 3 (Mouse plasma protein): 91.91%
Buffer Concentration Rep 1 (Mouse plasma protein): 67.1 nM
Buffer Concentration Rep 2 (Mouse plasma protein): 79.3 nM
Buffer Concentration Rep 3 (Mouse plasma protein): 67.6 nM
Mean % Protein Bound (Mouse plasma protein): 91.60%
Plasma Concentration Rep 1 (Mouse plasma protein): 846.3 nM
Plasma Concentration Rep 2 (Mouse plasma protein): 877.0 nM
Plasma Concentration Rep 3 (Mouse plasma protein): 835.8 nM
recovery at 6 h, 1 μM (in vitro): 92.4%
Cytotoxicity Code [1]: N
cytotoxicity to tester strains [1]: No cytotoxicity was observed
dose related increase of revertant colonies [1]: No dose related increase
precipitate in Mini-Ames assay [1]: No precipitate was observed
% Protein Bound Rep 1 (Human plasma protein): 36.79%
% Protein Bound Rep 2 (Human plasma protein): 90.21%
% Protein Bound Rep 3 (Human plasma protein): 87.89%
Buffer Concentration Rep 1 (Human plasma protein): 80.7 nM
Buffer Concentration Rep 2 (Human plasma protein): 70.2 nM
Buffer Concentration Rep 3 (Human plasma protein): 81.2 nM
Mean % Protein Bound (Human plasma protein): 88.29%
Plasma Concentration Rep 1 (Human plasma protein): 611.0 nM
Plasma Concentration Rep 2 (Human plasma protein): 717.1 nM
Plasma Concentration Rep 3 (Human plasma protein): 670.6 nM
composite Tissue Collagen Fraction (TCF) ([2]; 15 mpk/day Px EXAMPLE 22, Vehicle 5.58±0.34%): 4.51±0.31%
21-day survival rate ([2]; 15 mpk Px EXAMPLE 22 (p.o. BID)): 91%
21-day survival rate ([2]; 30 mpk Px EXAMPLE 22 (p.o. BID)): 91%
21-day survival rate ([2]; 60 mpk Px EXAMPLE 22 (p.o. BID)): 92%
21-day survival rate ([2]; Tx EXAMPLE 22 60 mpk (p.o. BID, from 5 days post-BLEO)): 100%
ΔBW ([2]; D0-D21, relative to Vehicle-treated BLEO-instilled controls): Neither EXAMPLE 22 nor PIRF affected
end-point readouts for fibrosis, overall ([2]; overall conclusion of the study): positive impact on one or more end-point readouts
LW indexed to tibia length (LW:TL) [2, 3]: Neither EXAMPLE 22 nor PIRF affected
endpoint lung OH-P content [2, 3]: Neither EXAMPLE 22 nor PIRF affected
endpoint lung weight (LW) [2, 3]: Neither EXAMPLE 22 nor PIRF affected
final BW [2, 3]: Neither EXAMPLE 22 nor PIRF affected
serial BW [2, 3]: Neither EXAMPLE 22 nor PIRF affected
% Protein Bound Rep 1 (Rat plasma protein): 91.63%
% Protein Bound Rep 2 (Rat plasma protein): 90.98%
% Protein Bound Rep 3 (Rat plasma protein): 92.73%
Buffer Concentration Rep 1 (Rat plasma protein): 49.3 nM
Buffer Concentration Rep 2 (Rat plasma protein): 62.3 nM
Buffer Concentration Rep 3 (Rat plasma protein): 53.6 nM
Mean % Protein Bound (Rat plasma protein): 91.78%
Plasma Concentration Rep 1 (Rat plasma protein): 588.6 nM
Plasma Concentration Rep 2 (Rat plasma protein): 690.6 nM
Plasma Concentration Rep 3 (Rat plasma protein): 737.4 nM
